PubChem BioAssay AID1963978 (Molecular Pharmacology Branch, DTP, NCI, 2024)

Test system: 616215-338-R-J1-PDC spheroids with HUVEC/MSC, viability
Test: Anticancer human tumor 616215-338-R-J1-PDC patient-derived colon adenocarcinoma cell line growth inhibition [PI3K]
Settings: for IC50: curve of first compound; for viability, T/C: stronger effect = lower value
How it was run: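 Agents were dosed from a top concentration near clinical Cmax (otherwise 10 microM) in half-log decrements, alone or combined with PI3K inhibitors. The spheroids contain tumor cells plus endothelial (HUVEC) and MSC stroma; viability is measured.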

[1] = second compound 0.0316 µM, first compound 0.0316 µM
[2] = second compound 0.0316 µM, first compound 0.1 µM
[3] = second compound 0.0316 µM, first compound 0.316 µM
[4] = second compound 0.0316 µM, first compound 1 µM
[5] = second compound 0.0316 µM, first compound 3.16 µM
[6] = second compound 0.0316 µM, first compound 10 µM
[7] = second compound 0.1 µM, first compound 0.0316 µM
[8] = second compound 0.1 µM, first compound 0.1 µM
[9] = second compound 0.1 µM, first compound 0.316 µM
[10] = second compound 0.1 µM, first compound 1 µM
[11] = second compound 0.1 µM, first compound 3.16 µM
[12] = second compound 0.1 µM, first compound 10 µM
[13] = second compound 0.316 µM, first compound 0.0316 µM
[14] = second compound 0.316 µM, first compound 0.1 µM
[15] = second compound 0.316 µM, first compound 0.316 µM
[16] = second compound 0.316 µM, first compound 1 µM
[17] = second compound 0.316 µM, first compound 3.16 µM
[18] = second compound 0.316 µM, first compound 10 µM
[19] = second compound 1 µM, first compound 0.0316 µM
[20] = second compound 1 µM, first compound 0.1 µM
[21] = second compound 1 µM, first compound 0.316 µM
[22] = second compound 1 µM, first compound 1 µM
[23] = second compound 1 µM, first compound 3.16 µM
[24] = second compound 1 µM, first compound 10 µM
[25] = second compound 3.16 µM, first compound 0.0316 µM
[26] = second compound 3.16 µM, first compound 0.1 µM
[27] = second compound 3.16 µM, first compound 0.316 µM
[28] = second compound 3.16 µM, first compound 1 µM
[29] = second compound 3.16 µM, first compound 3.16 µM
[30] = second compound 3.16 µM, first compound 10 µM
[31] = second compound 10 µM, first compound 0.0316 µM
[32] = second compound 10 µM, first compound 0.1 µM
[33] = second compound 10 µM, first compound 0.316 µM
[34] = second compound 10 µM, first compound 1 µM
[35] = second compound 10 µM, first compound 3.16 µM
[36] = second compound 10 µM, first compound 10 µM
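Further: spheroids exposed to agents for seven days before the viability read.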

C#Cc1c(F)ccc2cc(O)cc(-c3ncc4c(N5CC6CCC(C5)N6)nc(OCC56CCCN5CC(F)C6)nc4c3F)c12 (stereo not drawn) + CC(Nc1ncnc2nc[nH]c12)c1cc2cccc(Cl)c2c(=O)n1-c1ccccc1
IC50 (second compound 0.0316 µM): > 10 µM | IC50 (second compound 0.1 µM): > 10 µM | IC50 (second compound 0.316 µM): > 10 µM | IC50 (second compound 1 µM): > 10 µM | IC50 (second compound 3.16 µM): > 10 µM | IC50 (second compound 10 µM): > 10 µM | viability, T/C [1]: 99.5% | viability, T/C [2]: 93.7% | viability, T/C [3]: 102% | viability, T/C [4]: 109% | viability, T/C [5]: 109% | viability, T/C [6]: 73.3% | viability, T/C [7]: 102% | viability, T/C [8]: 110% | viability, T/C [9]: 98.5% | viability, T/C [10]: 99.8% | viability, T/C [11]: 102% | viability, T/C [12]: 81.3% | viability, T/C [13]: 111% | viability, T/C [14]: 97.7% | viability, T/C [15]: 98.2% | viability, T/C [16]: 99.8% | viability, T/C [17]: 104% | viability, T/C [18]: 68.2% | viability, T/C [19]: 100% | viability, T/C [20]: 110% | viability, T/C [21]: 108% | viability, T/C [22]: 104% | viability, T/C [23]: 122% | viability, T/C [24]: 74.7% | viability, T/C [25]: 111% | viability, T/C [26]: 97.7% | viability, T/C [27]: 103% | viability, T/C [28]: 107% | viability, T/C [29]: 98.4% | viability, T/C [30]: 58.4% | viability, T/C [31]: 104% | viability, T/C [32]: 108% | viability, T/C [33]: 109% | viability, T/C [34]: 105% | viability, T/C [35]: 95% | viability, T/C [36]: 62.5%

C=CC(=O)N1CCN(c2nc(=O)n(-c3c(C)ccnc3C(C)C)c3nc(-c4c(O)cccc4F)c(F)cc23)C(C)C1 (stereo not drawn) + CC(Nc1ncnc2nc[nH]c12)c1cc2cccc(Cl)c2c(=O)n1-c1ccccc1
IC50 (second compound 0.0316 µM): > 10 µM | IC50 (second compound 0.1 µM): > 10 µM | IC50 (second compound 0.316 µM): > 10 µM | IC50 (second compound 1 µM): > 10 µM | IC50 (second compound 3.16 µM): > 10 µM | IC50 (second compound 10 µM): > 10 µM | viability, T/C [1]: 89% | viability, T/C [2]: 92.5% | viability, T/C [3]: 109% | viability, T/C [4]: 104% | viability, T/C [5]: 93.3% | viability, T/C [6]: 95.8% | viability, T/C [7]: 100% | viability, T/C [8]: 99.3% | viability, T/C [9]: 98% | viability, T/C [10]: 93.4% | viability, T/C [11]: 96.8% | viability, T/C [12]: 89.1% | viability, T/C [13]: 99.7% | viability, T/C [14]: 107% | viability, T/C [15]: 92.8% | viability, T/C [16]: 96.5% | viability, T/C [17]: 91.4% | viability, T/C [18]: 74.7% | viability, T/C [19]: 101% | viability, T/C [20]: 99.5% | viability, T/C [21]: 106% | viability, T/C [22]: 96.9% | viability, T/C [23]: 94% | viability, T/C [24]: 88.5% | viability, T/C [25]: 101% | viability, T/C [26]: 104% | viability, T/C [27]: 98% | viability, T/C [28]: 105% | viability, T/C [29]: 85.4% | viability, T/C [30]: 78.8% | viability, T/C [31]: 106% | viability, T/C [32]: 107% | viability, T/C [33]: 108% | viability, T/C [34]: 95.5% | viability, T/C [35]: 99% | viability, T/C [36]: 82.6%

CC(Cn1ccc(-c2ccc(C#N)c(Cl)c2)n1)NC(=O)c1cc(C(C)O)[nH]n1 (stereo not drawn) + CC(Nc1ncnc2nc[nH]c12)c1cc2cccc(Cl)c2c(=O)n1-c1ccccc1
IC50 (second compound 0.0316 µM): > 10 µM | IC50 (second compound 0.1 µM): > 10 µM | IC50 (second compound 0.316 µM): > 10 µM | IC50 (second compound 1 µM): > 10 µM | IC50 (second compound 3.16 µM): > 10 µM | IC50 (second compound 10 µM): > 10 µM | viability, T/C [1]: 92% | viability, T/C [2]: 99.5% | viability, T/C [3]: 103% | viability, T/C [4]: 96.1% | viability, T/C [5]: 116% | viability, T/C [6]: 99.5% | viability, T/C [7]: 93.7% | viability, T/C [8]: 94.6% | viability, T/C [9]: 102% | viability, T/C [10]: 92.9% | viability, T/C [11]: 95.5% | viability, T/C [12]: 104% | viability, T/C [13]: 93.1% | viability, T/C [14]: 102% | viability, T/C [15]: 89.1% | viability, T/C [16]: 101% | viability, T/C [17]: 102% | viability, T/C [18]: 93.4% | viability, T/C [19]: 96% | viability, T/C [20]: 88.3% | viability, T/C [21]: 110% | viability, T/C [22]: 93.7% | viability, T/C [23]: 110% | viability, T/C [24]: 95.9% | viability, T/C [25]: 109% | viability, T/C [26]: 97.1% | viability, T/C [27]: 107% | viability, T/C [28]: 104% | viability, T/C [29]: 94.8% | viability, T/C [30]: 92.8% | viability, T/C [31]: 99.4% | viability, T/C [32]: 106% | viability, T/C [33]: 101% | viability, T/C [34]: 97% | viability, T/C [35]: 118% | viability, T/C [36]: 95.5%

CC1(C)CCC(Nc2ncc(C(F)(F)F)c(-c3c[nH]c4c(P(C)(C)=O)c(C#N)ccc34)n2)CN1 (stereo not drawn) + CC(Nc1ncnc2nc[nH]c12)c1cc2cccc(Cl)c2c(=O)n1-c1ccccc1
IC50 (second compound 0.0316 µM): 0.0316 µM | IC50 (second compound 0.1 µM): 0.0316 µM | IC50 (second compound 0.316 µM): 0.0316 µM | IC50 (second compound 1 µM): < 0.0316 µM | IC50 (second compound 3.16 µM): 1.09 µM | IC50 (second compound 10 µM): 0.714 µM | viability, T/C [1]: 53.9% | viability, T/C [2]: 39% | viability, T/C [3]: 44.9% | viability, T/C [4]: 51.6% | viability, T/C [5]: 51.8% | viability, T/C [6]: 0.44% | viability, T/C [7]: 50.6% | viability, T/C [8]: 37% | viability, T/C [9]: 44.8% | viability, T/C [10]: 45.8% | viability, T/C [11]: 54% | viability, T/C [12]: 1.73% | viability, T/C [13]: 44% | viability, T/C [14]: 37.4% | viability, T/C [15]: 41.1% | viability, T/C [16]: 42.3% | viability, T/C [17]: 51.3% | viability, T/C [18]: 0.53% | viability, T/C [19]: 42.2% | viability, T/C [20]: 41.1% | viability, T/C [21]: 39.9% | viability, T/C [22]: 70.7% | viability, T/C [23]: 46.5% | viability, T/C [24]: 1.13% | viability, T/C [25]: 44.1% | viability, T/C [26]: 39.4% | viability, T/C [27]: 64.1% | viability, T/C [28]: 57.4% | viability, T/C [29]: 41.8% | viability, T/C [30]: 0.36% | viability, T/C [31]: 48% | viability, T/C [32]: 51.3% | viability, T/C [33]: 58.4% | viability, T/C [34]: 48.4% | viability, T/C [35]: 20.9% | viability, T/C [36]: 0.61%
